# Experimental data from patent US20160331708A1 (priority 2014, published 2016).
# “And” between values parts separate entries of the source, which are not always exact repeats. Equal values may be shown once. Where a name gives a salt, the structure may show the parent alone. Read-outs that look alike come from different tables or passages of the source. Numbered stars: 1 amine (or outer) side, 2 acyl side, 3 side chain; on linkers, the order of the positions; unused ones are H or OH. Bridge positions count the residues as written; N and C are the ends. Square brackets hold non-standard residues; d marks the D form. Peptide text beside a SMILES is read from it. I, II: the chains in the order shown. Actinocin(9to1) = Cc1c2oc3c(C)ccc(C(=O)[*:1])c3nc-2c(C(=O)[*:2])c(N)c1=O; NMeV = CN[C@H](C(=O)O)C(C)C; Sar = CNCC(=O)O
# Key:
# Bacillus subtilis 168 = assay: Antibiotic MIC tests in microtiter plates; details: for MIC with anthranilic acid (2.2 mM): antibiotic against B. subtilis in the presence of anthranilic acid (2.2 mM); for Effect: effect of anthranilic acid (2.2 mM) on MIC of the antibiotic against B. subtilis; for effect on MIC value when combined with anthranilic acid: anthranilic acid at around 2 mM, B. subtilis; for effect on the MIC of streptomycin: related compounds tested for synergistic effect with streptomycin (text, Table 4 title)
# Streptomyces MBT3 = assay: TLC biogram / agar overlay antimicrobial assay of EtOAc extracts of Streptomyces MBT3 cultures treated with plant hormones; type: cell-based, Streptomyces sp MBT3 (indicator strain B. subtilis); details: methyl-jasmonate 100 μM or salicylic acid 250 μM added to 7 day cultures, 24 hours; B. subtilis indicator
# Procedure: All media for growth of Streptomyces are described in (Kieser et al., 2000). For the preparation of Streptomyces cultures, spores were obtained from SFM agar plates and inoculated at a density of 5×10^6 into 20 ml liquid minimal media with mannitol and glycerol as the carbon sources culture media in a 250 ml Erlenmeyer flask and incubated at 30° C. in a rotary shaker (250 rpm). Mycelia were precipitated by centrifugation for 10 minutes at 12,000 g. Each replicate of culture supernatant was extracted twice with an equal amount (40 ml in total) of analytically pure EtOAc (Sigma-Aldrich St. Louis, Mo., USA). Two grams of Na2SO4 was then added into the organic phase to remove remaining water and was evaporated under vacuum at 38° C. Samples were then re-dissolved in Methanol-d4 (99.8%) (Cambridge Isotope Laboratories, Inc., Andover, Mass., USA) for NMR analysis. 1.5 ml of the culture was collected every three hours and centrifuged. […]
# Actinomycetes are very abundantly present in the plant rhizosphere. […] The ethyl acetate extract of the culture fluid of MBT3 was analyzed further for metabolic profile and antimicrobial activity against Bacillus subtilis.
# Antimicrobial activity of the extracts was analyzed using thin layer chromatography (TLC) biograms. […]
# Legionella pneumophila = details: Sasaki et al., 2012; cited from earlier work
# [1] = Bacillus subtilis, 168, antibiotic alone against B. subtilis (Table 2)
# [2] = Bacillus subtilis, 168, antibiotic alone against B. subtilis (Table 3)
# [3] = Bacillus subtilis, 168, compound alone (Table 4)
# [4] = antibiotic alone against B. subtilis (Table 2)
# [5] = antibiotic alone against B. subtilis (Table 3)
molecule,measurement,setting,value
CO[C@H]1/C=C/O[C@@]2(C)Oc3c(C)c(O)c4c(O)c(c(/C=N/N5CCN(C)CC5)c(O)c4c3C2=O)NC(=O)/C(C)=C\C=C\[C@H](C)[C@H](O)[C@@H](C)[C@@H](O)[C@@H](C)[C@H](OC(C)=O)[C@@H]1C [Rifampin],MIC,Bacillus subtilis 168; [1],0.0122 µg/mL
same,MIC,Bacillus subtilis 168; [2],0.0122 µg/mL
same,MIC with anthranilic acid (2.2 mM),Bacillus subtilis 168,0.0122 µg/mL
same,Effect,Bacillus subtilis 168,No effect
"O=C(O)[C@@H]1CCCN1 (racemic) [D,L-Proline]",MIC,Bacillus subtilis 168; compound alone (Table 4),>750 µg/mL
"NC[C@H]1O[C@H](O[C@H]2[C@H](O)[C@@H](O[C@H]3O[C@H](CO)[C@@H](O)[C@H](N)[C@H]3O)[C@H](N)C[C@@H]2N)[C@H](O)[C@@H](O)[C@@H]1O [Kanamycin (sulfate), Kanamycin]",MIC,Bacillus subtilis 168; [1],125 µg/mL
same,MIC,Bacillus subtilis 168; [2],125 µg/mL
same,MIC with anthranilic acid (2.2 mM),Bacillus subtilis 168,31.2 µg/mL
O=C(N[C@H](CO)[C@H](O)c1ccc([N+](=O)[O-])cc1)C(Cl)Cl [Chloramphenicol],MIC,Bacillus subtilis 168; [1],125 µg/mL
same,MIC,Bacillus subtilis 168; [2],125 µg/mL
same,MIC with anthranilic acid (2.2 mM),Bacillus subtilis 168,125 µg/mL
same,Effect,Bacillus subtilis 168,No effect
"Nc1cc(N)cc(C(=O)O)c1 [3,5-diaminobenzoic acid]",MIC,Bacillus subtilis 168; [3],> 750 µg/mL
"CC1(C)S[C@@H]2[C@H](NC(=O)[C@H](N)c3ccccc3)C(=O)N2[C@H]1C(=O)O [Ampicillin (sodium salt), Ampicillin]",MIC,Bacillus subtilis 168; [1],0.0153 µg/mL
"O=C(O)c1ccccc1O [Salicylic acid (sodium salt), Salicylic acid]",MIC,Bacillus subtilis 168; [3],> 1500 µg/mL
same,effect on antimicrobial activity (bioactivity) of MBT3,Streptomyces MBT3,no effect
Neomycin [Neomycin (sulfate)],effect on MIC value when combined with anthranilic acid,Bacillus subtilis 168,decreased
same,MIC with anthranilic acid (2.2 mM),Bacillus subtilis 168,15.6 µg/mL
same,MIC,Bacillus subtilis 168; [4],62.5 µg/mL
same,MIC,Bacillus subtilis 168; [5],62.5 µg/mL
same,Effect,Bacillus subtilis 168,Lower MIC
Nc1ccc(C(=O)O)cc1 [4-aminobenzoic acid],MIC,Bacillus subtilis 168; [3],750 µg/mL
Actinomycin C2,MIC,Bacillus subtilis 168; [4],0.25 µg/mL
CC[C@H]1OC(=O)[C@H](C)[C@@H](O[C@H]2C[C@@](C)(OC)[C@@H](O)[C@H](C)O2)[C@H](C)[C@@H](O[C@@H]2O[C@H](C)C[C@H](N(C)C)[C@H]2O)[C@](C)(O)C[C@@H](C)C(=O)[C@H](C)[C@@H](O)[C@]1(C)O [Erythromycin],MIC,Bacillus subtilis 168; [1],0.122 µg/mL
"CC1(C)S[C@@H]2[C@H](NC(=O)Cc3ccccc3)C(=O)N2[C@H]1C(=O)[O-].[Na+] [Penicillin G (sodium salt), Penicillin G]",effect on MIC value when combined with anthranilic acid,Bacillus subtilis 168,decreased
same,MIC with anthranilic acid (2.2 mM),Bacillus subtilis 168,0.0031 µg/mL
same,MIC,Bacillus subtilis 168; [4],0.0062 µg/mL
same,MIC,Bacillus subtilis 168; [5],0.0062 µg/mL
same,Effect,Bacillus subtilis 168,Lower MIC
"CN[C@H](CC(C)C)C(=O)N[C@H]1C(=O)N[C@@H](CC(N)=O)C(=O)N[C@H]2C(=O)N[C@H]3C(=O)N[C@H](C(=O)N[C@H](C(=O)O)c4cc(O)cc(O)c4-c4cc3ccc4O)[C@H](O)c3ccc(c(Cl)c3)Oc3cc2cc(c3O[C@@H]2O[C@H](CO)[C@@H](O)[C@H](O)[C@H]2O[C@H]2C[C@](C)(N)[C@H](O)[C@H](C)O2)Oc2ccc(cc2Cl)[C@H]1O [Vancomycin (HCl), Vancomycin]",MIC,"Bacillus subtilis 168; Bacillus subtilis, 168",0.156 µg/mL
same,effect on MIC value when combined with anthranilic acid,Bacillus subtilis 168,No synergistic effect
same,MIC with anthranilic acid (2.2 mM),Bacillus subtilis 168,0.156 µg/mL
same,MIC,Bacillus subtilis 168; [5],0.156 µg/mL
same,Effect,Bacillus subtilis 168,No effect
Actinomycin C,effect on MIC value when combined with anthranilic acid,Bacillus subtilis 168,decreased
same,MIC with anthranilic acid (2.2 mM),Bacillus subtilis 168,0.039 µg/mL
same,MIC,Bacillus subtilis 168; [4],0.078 µg/mL
same,MIC,Bacillus subtilis 168; [5],0.078 µg/mL
same,Effect,Bacillus subtilis 168,Lower MIC
"CC1=C(C(=O)O)N2C(=O)[C@@H](NC(=O)[C@H](N)c3ccccc3)[C@H]2SC1 [Cephalexin (1H2O), Cephalexin]",MIC,Bacillus subtilis 168; [1],0.122 µg/mL
same,MIC,Bacillus subtilis 168; [2],0.122 µg/mL
same,Effect,Bacillus subtilis 168,Lower MIC
CCn1cc(C(=O)O)c(=O)c2ccc(C)nc21 [Nalidixic acid],MIC,Bacillus subtilis 168; [1],3.1 µg/mL
NC(=O)c1ccccc1N [Anthranilic acid amide],MIC,Bacillus subtilis 168; [3],> 1500 µg/mL
Gentamycin [Gentamycin (sulfate)],effect on MIC value when combined with anthranilic acid,Bacillus subtilis 168,decreased
same,MIC with anthranilic acid (2.2 mM),Bacillus subtilis 168,0.625 µg/mL
same,MIC,Bacillus subtilis 168; [4],1.25 µg/mL
same,MIC,Bacillus subtilis 168; [5],1.25 µg/mL
same,Effect,Bacillus subtilis 168,Lower MIC
"CCC[C@@H]1C[C@@H](C(=O)N[C@@H]([C@H]2O[C@H](SC)[C@H](O)[C@@H](O)[C@H]2O)[C@H](C)Cl)N(C)C1 [Clindamycin (HCl), Clindamycin]",MIC,Bacillus subtilis 168; [1],0.488 µg/mL
same,MIC,Bacillus subtilis 168; [2],0.488 µg/mL
same,MIC with anthranilic acid (2.2 mM),Bacillus subtilis 168,0.244 µg/mL
"Cc1c2oc3c(C)ccc(C(=O)N[C@@H]4C(=O)N[C@H](C(C)C)C(=O)N5CCC[C@H]5C(=O)N(C)CC(=O)N(C)[C@@H](C(C)C)C(=O)O[C@@H]4C)c3nc-2c(C(=O)N[C@@H]2C(=O)N[C@H](C(C)C)C(=O)N3CCC[C@H]3C(=O)N(C)CC(=O)N(C)[C@@H](C(C)C)C(=O)O[C@@H]2C)c(N)c1=O [Actinomycin D] (I: T[dV]P[Sar][NMeV] / II: T[dV]P[Sar][NMeV]; ester I:1-I:C, II:1-II:C; linker I:N-II:N via Actinocin(9to1))",MIC with anthranilic acid (2.2 mM),Bacillus subtilis 168,0.156 µg/mL
same,MIC,Bacillus subtilis 168; [4],0.156 µg/mL
same,MIC,Bacillus subtilis 168; [5],0.156 µg/mL
same,Effect,Bacillus subtilis 168,No effect
Benzoic acid,MIC,Bacillus subtilis 168; compound alone (Table 4),>750 µg/mL
Nc1ccccc1C(=O)O [anthranilic acid],growth inhibitory effect,Legionella pneumophila,mild growth inhibitory effect
same,activity against B. subtilis,"Bacillus subtilis 168; compound itself, at concentrations below 5 mg/ml",did not show any activity
Oc1ccccc1O [Catechol],MIC,Bacillus subtilis 168; [3],750 µg/mL
same,effect on the MIC of streptomycin,Bacillus subtilis 168,duplication of the MIC value
CC/C=C\CC1C(=O)CCC1CC(=O)OC (stereo not drawn) [methyl jasmonate],effect on antimicrobial activity (bioactivity) of MBT3,Streptomyces MBT3,strongly enhanced
"[H]/N=C(/N)N[C@H]1[C@H](O)[C@@H](O)[C@H](O[C@@H]2O[C@@H](C)[C@](O)(C=O)[C@H]2O[C@@H]2O[C@@H](CO)[C@H](O)[C@@H](O)[C@@H]2NC)[C@@H](N/C(N)=N\[H])[C@@H]1O [Streptomycin (sulfate), Streptomycin]",MIC of streptomycin,Bacillus subtilis 168; 75 μg/μl anthranilate,15000 µg/mL
same,reduction of MIC of streptomycin,Bacillus subtilis 168; 75 μg/μl anthranilate,50%
same,MIC,Bacillus subtilis 168; [1],31.2 µg/mL
same,MIC,Bacillus subtilis 168; [2],31.2 µg/mL
same,MIC,Bacillus subtilis 168; [3],31.2 µg/mL
same,MIC,"Bacillus subtilis 168; Bacillus subtilis, 168, read-out: MIC value of streptomycin, Bacillus subtilis, no anthranilic acid (FIG. 3)",31.2 µg/mL
same,MIC,"Bacillus subtilis 168; Bacillus subtilis, 168, read-out: MIC value of streptomycin, at 300 μg/ml anthranilic acid (FIG. 3)",5 µg/mL
same,MIC value of streptomycin,"Bacillus subtilis 168; Bacillus subtilis, no anthranilic acid (FIG. 3)",30 µg/mL and 31.25 ± 0.05 µg/mL
same,reduction in the MIC of streptomycin,Bacillus subtilis 168; anthranilate at concentrations of 300 μg/μl and higher,six-fold
same,MIC value of Streptomycin reduced by a factor,Bacillus subtilis 168; anthranilic acid about 50 μg/ml in the culture,2
same,MIC value of Streptomycin reduced by a factor,Bacillus subtilis 168; anthranilic acid about 150 μg/ml in the culture,3
same,MIC value of Streptomycin reduced by a factor,Bacillus subtilis 168; anthranilic acid about 300 μg/ml in the culture,6
same,effect on MIC value when combined with anthranilic acid,Bacillus subtilis 168,decreased
same,MIC with anthranilic acid (2.2 mM),Bacillus subtilis 168,5 µg/mL
same,decrease of streptomycin MIC (times),"Bacillus subtilis 168; combined with anthranilic acid, concentration dependent",up to 6 times
same,Effect,Bacillus subtilis 168,Lower MIC
"O=C1O[C@H]([C@@H](O)CO)C(O)=C1O [L-Ascorbic acid (sodium salt), L-Ascorbic acid]",MIC,Bacillus subtilis 168; [3],> 750 µg/mL
"CN[C@@H]1[C@@H](O[C@H]2O[C@H](CO)[C@@H](N)[C@H](O)[C@H]2O)OC2C[C@@H](N)[C@@H](O[C@H]3[C@H](O)[C@@H](O)[C@H](N)C[C@@H]3N)OC2[C@@H]1O (stereo partly drawn) [Apramycin (sulfate), Apramycin]",MIC,Bacillus subtilis 168; [1],1.95 µg/mL
same,MIC,Bacillus subtilis 168; [2],1.95 µg/mL
same,MIC with anthranilic acid (2.2 mM),Bacillus subtilis 168,1.953 µg/mL
same,Effect,Bacillus subtilis 168,No effect
Nc1cccc(C(=O)O)c1 [3-aminobenzoic acid],MIC,Bacillus subtilis 168; [3],750 µg/mL
O=C(O)[C@@H]1CCCN1 [L-Proline],MIC,Bacillus subtilis 168; [3],> 1500 µg/mL
"O=C(O)c1cccc(O)c1O [2,3-dihydroxybenzoic acid]",MIC,Bacillus subtilis 168; [3],750 µg/mL
same,effect on the MIC of streptomycin,Bacillus subtilis 168,duplication of the MIC value
